Measured values published in article PMC4663078 (Bioorganic & medicinal chemistry letters, 2015).
Read-outs that look alike come from different tables or passages of the source.

Columns and labels:
CIMRSA 3 = assay: microdilution susceptibility test; format: cell-based, Staphylococcus aureus; conditions: N=3
Pseudomonas aeruginosa = conditions: cited from earlier work
CIMRSA 4 = assay: microdilution susceptibility test; format: cell-based, Staphylococcus aureus; conditions: N=3
E. coli (ATCC 25922) = assay: microdilution susceptibility test; format: cell-based, Escherichia coli; conditions: N=3
Klebsiella pneumoniae = conditions: cited from earlier work
[1] = system: PBMC isolated from healthy volunteers; assay: cytotoxicity in peripheral blood mononuclear cells; format: cell-based, human; conditions: N=3
CIMRSA 6 = assay: microdilution susceptibility test; format: cell-based, Staphylococcus aureus; conditions: N=3
CIMRSA 7 = assay: microdilution susceptibility test; format: cell-based, Staphylococcus aureus; conditions: N=3
S. aureus DNA gyrase = S. aureus DNA gyrase (Staphylococcus aureus, UniProt P0A0K8+P20831); assay: DNA gyrase supercoiling inhibition; format: biochemical
Chain of S. aureus DNA gyrase (P20831 whole entry): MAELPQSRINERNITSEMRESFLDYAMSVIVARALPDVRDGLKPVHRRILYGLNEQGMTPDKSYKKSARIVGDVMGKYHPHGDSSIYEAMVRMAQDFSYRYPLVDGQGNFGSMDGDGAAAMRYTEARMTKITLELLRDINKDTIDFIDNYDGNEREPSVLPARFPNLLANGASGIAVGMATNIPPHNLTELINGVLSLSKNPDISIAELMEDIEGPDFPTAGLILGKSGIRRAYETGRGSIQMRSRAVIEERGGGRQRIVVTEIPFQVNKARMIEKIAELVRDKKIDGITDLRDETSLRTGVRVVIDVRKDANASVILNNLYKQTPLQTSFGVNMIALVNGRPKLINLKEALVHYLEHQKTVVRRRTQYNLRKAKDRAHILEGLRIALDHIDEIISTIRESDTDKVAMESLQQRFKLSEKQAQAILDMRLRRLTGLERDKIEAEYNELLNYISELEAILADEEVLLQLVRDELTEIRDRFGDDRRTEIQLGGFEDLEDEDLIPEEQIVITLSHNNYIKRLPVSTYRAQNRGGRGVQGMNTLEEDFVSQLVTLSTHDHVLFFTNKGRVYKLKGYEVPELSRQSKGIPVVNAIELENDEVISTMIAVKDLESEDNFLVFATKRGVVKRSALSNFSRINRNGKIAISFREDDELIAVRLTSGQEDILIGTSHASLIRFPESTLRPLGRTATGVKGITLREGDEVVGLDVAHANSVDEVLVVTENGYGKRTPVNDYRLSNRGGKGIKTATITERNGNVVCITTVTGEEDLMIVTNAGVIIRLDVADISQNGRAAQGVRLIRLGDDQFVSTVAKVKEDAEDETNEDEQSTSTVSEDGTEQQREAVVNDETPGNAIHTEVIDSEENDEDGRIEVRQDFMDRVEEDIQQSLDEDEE
Chain of S. aureus DNA gyrase (P0A0K8 whole entry): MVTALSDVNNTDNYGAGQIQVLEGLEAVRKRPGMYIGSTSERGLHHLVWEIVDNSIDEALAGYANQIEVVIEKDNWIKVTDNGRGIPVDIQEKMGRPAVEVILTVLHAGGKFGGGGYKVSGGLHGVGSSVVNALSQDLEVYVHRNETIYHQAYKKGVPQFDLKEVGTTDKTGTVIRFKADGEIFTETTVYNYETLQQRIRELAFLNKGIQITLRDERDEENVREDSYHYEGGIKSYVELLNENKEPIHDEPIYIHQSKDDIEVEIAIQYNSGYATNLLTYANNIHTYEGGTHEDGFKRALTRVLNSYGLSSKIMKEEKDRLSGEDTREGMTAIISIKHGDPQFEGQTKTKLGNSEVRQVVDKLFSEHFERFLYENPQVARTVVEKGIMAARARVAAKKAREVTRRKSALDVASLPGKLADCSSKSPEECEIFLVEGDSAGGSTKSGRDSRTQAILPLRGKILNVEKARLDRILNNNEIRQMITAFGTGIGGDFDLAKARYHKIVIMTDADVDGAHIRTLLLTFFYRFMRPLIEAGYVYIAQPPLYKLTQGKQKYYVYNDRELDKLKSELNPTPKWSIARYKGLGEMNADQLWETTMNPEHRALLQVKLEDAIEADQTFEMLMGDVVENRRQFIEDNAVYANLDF

CIMRSA 2 = assay: microdilution susceptibility test; format: cell-based, Staphylococcus aureus; conditions: N=3
Bacillus cereus = conditions: cited from earlier work
CIMRSA 5 = assay: microdilution susceptibility test; format: cell-based, Staphylococcus aureus; conditions: N=3
MRSA (ATCC 43300) [2] = conditions: cited from earlier work
[3] = system: Staphylococcus saprophyticus; conditions: cited from earlier work
[4] = system: clinical isolates of MRSA; conditions: cited from earlier work
MRSA (ATCC 43300) [5] = assay: microdilution susceptibility test; format: cell-based, Staphylococcus aureus; conditions: N=3
CIMRSA 1 = assay: microdilution susceptibility test; format: cell-based, Staphylococcus aureus; conditions: N=3
Vero cells = assay: CTG Luminescent Cell Viability Assay; format: cell-based, monkey; conditions: N=3
eight MRSA strains = assay: antibacterial activity against eight MRSA strains; format: cell-based, Staphylococcus aureus; conditions: 6 compared with 2
[6] = CTG Luminescent Cell Viability Assay; format: cell-based, monkey; conditions: monkey, Vero cells

**Q.** Which results are given for 2-hexadecynoic acid [compound 4]?
**A.** IC50 ± SEM (CIMRSA 3): 6.3 ± 0.2 µg/mL; MIC (CIMRSA 3): 15.6 µg/mL; MIC (Pseudomonas aeruginosa): 125 µg/mL; IC50 ± SEM (CIMRSA 4): 6.5 ± 0.1 µg/mL; MIC (CIMRSA 4): 15.6 µg/mL; MIC (E. coli (ATCC 25922)): >1,000 μg/mL; MIC (Klebsiella pneumoniae): 7.8 µg/mL; PBMC cytotoxicity IC50±SEM [1]: 68.9 ± 0.7 µg/mL; IC50 ± SEM (CIMRSA 6): 5.7 ± 0.8 µg/mL; MIC (CIMRSA 6): 7.8 µg/mL; IC50 ± SEM (CIMRSA 7): 4.7 ± 0.3 µg/mL; MIC (CIMRSA 7): 7.8 µg/mL; fold more active against DNA gyrase than 6 (S. aureus DNA gyrase; 4 compared with 6): 3.7 fold; IC50 ± SEM (CIMRSA 2): 5.0 ± 0.5 µg/mL; MIC (CIMRSA 2): 7.8 µg/mL; MIC (Bacillus cereus): 31.3 µg/mL; IC50 ± SEM (CIMRSA 5): 5.1 ± 0.2 µg/mL; MIC (CIMRSA 5): 7.8 µg/mL; MIC (MRSA (ATCC 43300) [2]): 15.6 µg/mL; MIC [3]: 15.6 µg/mL; MIC [4]: 3.9 µg/mL; IC50 ± SEM (MRSA (ATCC 43300) [5]): 5.1 ± 0.1 µg/mL; MIC (MRSA (ATCC 43300) [5]): 7.8 µg/mL; IC50 ± SEM (CIMRSA 1): 4.2 ± 0.1 µg/mL; MIC (CIMRSA 1): 7.8 µg/mL; Vero cells cytotoxicity IC50±SEM (Vero cells): 1.6 ± 0.4 µg/mL

**Q.** Which “inhibition of S. aureus DNA gyrase (in words)” value (S. aureus DNA gyrase; ethidium bromide stained gels, Fig. 2) does the source give for `CCCCCCCCCCCCCCCC(=O)Oc1ccc(/C=C/C(=O)/C=C/c2ccc(OC(=O)CCCCCCCCCCCCCCC)c(OC)c2)cc1OC` [C5-Curc-PA, C5-Curcumin-Palmitic Acid] here?
**A.** Its value is “not inhibitory”.

**Q.** Which “fold increase of antibacterial activity against MRSA strains relative to 2” value (eight MRSA strains) does the source give for `CCCCCCCCCCCCCC#CC(=O)Oc1ccc(/C=C/C(=O)/C=C/c2ccc(OC(=O)C#CCCCCCCCCCCCCC)c(OC)c2)cc1OC` [compound 6, C5-Curcumin-2-Hexadecynoic Acid] here?
**A.** The value was 4-8 fold.

**Q.** And the IC50 [6]?
**A.** Its IC50 is greater than 100 µg/mL.
